Laboratory results: patent US20130115256A1, “METHODS FOR TREATING OR PREVENTING VASCULAR GRAFT FAILURE” (priority 2010, published 2013)

How the values were obtained:
PRAK = target: T1, PRAK (Homo sapiens, UniProt Q8IW41); experiment: PRAK radiometric kinase assay; type: biochemical; conditions: MMI-0100 100 μM; remaining kinase activity
T1 construct: purchased Millipore (KinaseProfiler service)
T1 sequence (Q8IW41 1-473): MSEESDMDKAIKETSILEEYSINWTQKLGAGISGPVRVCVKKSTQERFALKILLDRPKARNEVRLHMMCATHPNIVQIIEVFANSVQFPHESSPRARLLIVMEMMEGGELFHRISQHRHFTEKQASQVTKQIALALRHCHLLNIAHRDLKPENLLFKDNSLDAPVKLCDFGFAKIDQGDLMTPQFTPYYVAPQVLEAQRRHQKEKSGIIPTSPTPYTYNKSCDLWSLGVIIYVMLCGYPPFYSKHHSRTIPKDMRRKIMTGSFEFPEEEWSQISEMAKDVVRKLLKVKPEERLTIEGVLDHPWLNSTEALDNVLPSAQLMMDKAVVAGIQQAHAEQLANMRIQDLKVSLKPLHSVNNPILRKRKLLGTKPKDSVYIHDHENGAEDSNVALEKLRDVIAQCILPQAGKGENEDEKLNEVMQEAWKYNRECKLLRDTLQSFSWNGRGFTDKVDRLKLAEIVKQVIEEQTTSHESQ
From the text: A commercial radiometric assay service was used to test the specificity and potency of MMI-0100 ([…]; SEQ ID NO: 1) by measuring its half maximal inhibitory concentrations (IC50). This quantitative assay measures how much MK2 inhibitor (MMI-0100; […] (SEQ ID NO: 1)) is needed to inhibit 50% of a given biological process or component of a process (i.e., an enzyme, cell, or cell receptor). Specifically, in these assays, a positively charged substrate is phosphorylated with a radiolabeled phosphate group from an ATP if the kinase is not inhibited by an inhibitor peptide. The positively charged substrate then is attracted to a negatively charged filter membrane, quantified with a scintillation counter, and compared to a 100% activity control. ATP concentrations within 15 μM of the apparent Km for ATP were chosen since an ATP concentration near the Km may allow for the kinases to have the same relative amount of phosphorylation activity. The individual conditions for each radiometric assay are as follows. […]
IC50 values for inhibitor peptides were determined using Millipore's IC50 Profiler Express service. […]

[1] = test system: human saphenous vein (HSV); experiment: Human saphenous vein organ culture model of intimal hyperplasia
Procedure: Dc-identified, discarded segments of human saphenous vein (HSV) were collected from consented patients undergoing coronary artery or peripheral vascular bypass surgeries. HSV segments were stored in a saline solution until the end of the surgical procedure, at which time they were placed in cold transplant harvest buffer (100 mM potassium lactobionate, 25 mM KH2PO4, 5 mM MgSO4, 30 mM Raffinose, 5 mM Adenosine, 3 mM Glutathione, 1 mM Allopurinol, 50 g/L Hydroxyethyl starch, pH 7.4). The vessels were used within 24 hours of harvest. Using sterile technique, HSV segments were transferred to a 60-mm Petri dish under a sterile hood. The edges (0.5 mm) of each segment were removed with a blade and excess adventitial tissue and fat removed with minimal manipulation. […]
After viability was determined in the muscle bath, additional rings were cut and placed in 8-well chamber slides and maintained in RPMI 1640 medium supplemented with 30% FBS, 1% L-glutamine and 1% penicillin/streptomycin for 14 days at 37° C. in an atmosphere of 5% CO2 in air. […]
After 14 days of organ culture, vein segments were fixed in 0.5 mL of 10% formalin at 37° C. for 30 minutes and embedded in paraffin for sectioning. […] Intimal and medial thickening was measured for each section at 5× magnification with the microscope's computerized image analysis system. […]

YARAAARQARAKALARQLGVAA [MMI-0100]
Percent Activity, PRAK (PRAK): 100% | mean intimal thickness ([1]; 10 μM MMI-0100, 14 days culture, 30% FBS): 14 μm | intima:media (I:M) ratio ([1]; 100 μM MMI-0100, 14 days, 30% serum): greater reduction
